From EP4603105A1, “PHARMACEUTICAL COMPOSITION CONTAINING CYCLIC COMPOUND HAVING SELECTIVE KRAS INHIBITORY EFFECT AGAINST HRAS AND NRAS” (CHUGAI SEIYAKU KABUSHIKI KAISHA, priority 2022, dated 2024) come the findings set out here.

Test [1] deals with human lung cancer strain NCI-H441. The format is cell-based. In short, it runs like this: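 Proliferation was scored by […] measured after the reagent was added to cultures kept at 37°C in 5% carbon dioxide.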
Test [2] has as its target GDP-bound NRAS wild-type protein (Homo sapiens, UniProt P01111). Description: Binding to NRAS by surface plasmon resonance (SPR), KD and KD ratio to KRAS. The note with it: ratio of the KD value with respect to GDP-bound NRAS wild-type protein to the KD value with respect to KRAS. In a few lines:
(§1)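 Compound binding is evaluated by SPR single-cycle kinetics, with concentrations added intermittently from low to high for 75 s each. Target surfaces carry GDP-loaded biotinylated Avi-RAS at about 100–300 RU, regenerated after each cycle; temperature 30°C. A 1:1 binding model gives KD.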
(Surface plasmon resonance follows binding to a sensor surface in real time, without labels.)

The target in the next test is HRAS wild-type protein (Homo sapiens, UniProt P01112). In words: Binding to HRAS by surface plasmon resonance (SPR), KD and KD ratio to KRAS. Particulars: ratio of the KD value with respect to HRAS wild-type protein to the KD value with respect to KRAS. In a few lines: as §1
HRAS wild-type protein, sequence (P01112 whole entry): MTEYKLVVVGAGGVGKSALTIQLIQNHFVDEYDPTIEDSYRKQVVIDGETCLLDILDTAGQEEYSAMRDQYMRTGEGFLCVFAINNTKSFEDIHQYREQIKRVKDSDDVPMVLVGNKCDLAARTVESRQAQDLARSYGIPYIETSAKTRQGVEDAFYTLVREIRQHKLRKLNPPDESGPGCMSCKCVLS

GDP-bound NRAS wild-type protein, sequence (P01111 whole entry): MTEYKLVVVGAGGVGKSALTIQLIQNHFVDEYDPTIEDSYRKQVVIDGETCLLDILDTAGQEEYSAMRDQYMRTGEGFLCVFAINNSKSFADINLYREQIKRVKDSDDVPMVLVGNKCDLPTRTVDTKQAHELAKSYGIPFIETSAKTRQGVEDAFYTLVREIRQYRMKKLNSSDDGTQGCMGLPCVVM

For the compound `C#CC[C@H]1C(=O)N[C@@H]([C@@H](C)CC)C(=O)N(C)CC(=O)N(C)[C@H]2C/C=C\CCN(C2=O)[C@@H](Cc2ccc(C(F)(F)F)cc2)C(=O)N(C)CC(=O)N[C@@H](CCc2cc(F)c(C(F)(F)F)c(F)c2)C(=O)N2C[C@@H](C)C[C@H]2C(=O)NC2(CC(C)(C)C2)C(=O)N(C)[C@@H](C2CCCC2)C(=O)N(C)[C@H](C(=O)N(C)CCC)CC(=O)N1C` [PP2076], half-maximal inhibition in test [1] (IC50) required 15.6 nM. The “NRAS /KRAS” value in test [2] is “A (a compound having 10 or more and less than 20 is denoted as A)”. For the same compound, the “HRAS /KRAS” value on HRAS wild-type protein was “A (a compound having 10 or more and less than 20 is denoted as A)”.
Take `CCCN(C)C(=O)[C@@H]1CC(=O)N(C)[C@@H](C(C)C)C(=O)N[C@@H]([C@@H](C)CC)C(=O)N(C)CC(=O)N(C)[C@H]2C/C=C\CCN(C2=O)[C@@H](Cc2ccc(C(F)(F)F)cc2)C(=O)N(C)CC(=O)N[C@@H](CCc2cc(F)c(C(F)(F)F)c(F)c2)C(=O)N2C[C@@H](C)C[C@H]2C(=O)NC2(CCC2)C(=O)N(C)[C@@H](C2CCCC2)C(=O)N1C` [PP2079]: the IC50 – broadly, the concentration needed to halve the response being measured – in test [1] turned out to be 16 nM. In addition, the “NRAS /KRAS” value in test [2] is “A (a compound having 10 or more and less than 20 is denoted as A)”. The “HRAS /KRAS” value at HRAS wild-type protein was “A (a compound having 10 or more and less than 20 is denoted as A)”.
In turn, `CC[C@H](C)[C@@H]1NC(=O)[C@H](C2CC2)N(C)C(=O)C[C@@H](C(=O)N(C)CC)N(C)C(=O)[C@H](C2CCCC2)N(C)C(=O)C2(CCC2)NC(=O)[C@@H]2C[C@H](C)CN2C(=O)[C@H](CCc2cc(F)c(C(F)(F)F)c(F)c2)NC(=O)CN(C)C(=O)[C@H](Cc2ccc(C(F)(F)F)cc2)N2CC/C=C\C[C@@H](C2=O)N(C)C(=O)CN(C)C1=O` [PP2080] gave an IC50 in test [1] of 17.8 nM. Further, the “NRAS /KRAS” value in test [2] is “A (a compound having 10 or more and less than 20 is denoted as A)”. For the same compound, the “HRAS /KRAS” value on HRAS wild-type protein is “A (a compound having 10 or more and less than 20 is denoted as A)”.
With `CCCN(C)C(=O)[C@@H]1CC(=O)N(C)[C@@H](C2CC2)C(=O)N[C@@H]([C@@H](C)CC)C(=O)N(C)CC(=O)N(C)[C@H]2C/C=C\CCN(C2=O)[C@@H](Cc2ccc(C(F)(F)F)cc2)C(=O)N(C)CC(=O)N[C@@H](CCc2cc(F)c(C(F)(F)F)c(F)c2)C(=O)N2C[C@@H](C)C[C@H]2C(=O)NC2(CCC2)C(=O)N(C)[C@@H](C2CCCC2)C(=O)N1C` [PP2081], the IC50 in test [1] worked out at 11.2 nM. Further, the “NRAS /KRAS” value in test [2] was “A (a compound having 10 or more and less than 20 is denoted as A)”. Also, the “HRAS /KRAS” value on HRAS wild-type protein was “A (a compound having 10 or more and less than 20 is denoted as A)”.
The compound `CCCN(C)C(=O)[C@@H]1CC(=O)N(C)[C@@H](C2CCC2)C(=O)N[C@@H]([C@@H](C)CC)C(=O)N(C)CC(=O)N(C)[C@H]2C/C=C\CCN(C2=O)[C@@H](Cc2ccc(C(F)(F)F)cc2)C(=O)N(C)CC(=O)N[C@@H](CCc2cc(F)c(C(F)(F)F)c(F)c2)C(=O)N2C[C@@H](C)C[C@H]2C(=O)NC2(CCC2)C(=O)N(C)[C@@H](C2CCCC2)C(=O)N1C` [PP2083] returned an IC50 in test [1] of 10.3 nM. Further, the “NRAS /KRAS” value in test [2] was “A (a compound having 10 or more and less than 20 is denoted as A)”. The “HRAS /KRAS” value at HRAS wild-type protein is “B (a compound having 3 or more and less than 10 is denoted as B)”.
`C#CCN1CC(=O)N(C)[C@H]2C/C=C\CCN(C2=O)[C@@H](Cc2ccc(C(F)(F)F)cc2)C(=O)N(C)CC(=O)N[C@@H](CCc2cc(F)c(C(F)(F)F)c(F)c2)C(=O)N2C[C@H](OCC)C[C@H]2C(=O)NC2(CC(C)(C)C2)C(=O)N(C)[C@@H](C2CCCC2)C(=O)N(C)[C@H](C(=O)N(C)C)CC(=O)N(C)[C@@H](CC)C(=O)N[C@@H]([C@@H](C)CC)C1=O` [PP2087] displayed an IC50 in test [1] of 4.8 nM. In test [2], the “NRAS /KRAS” value is “A (a compound having 10 or more and less than 20 is denoted as A)”. The “HRAS /KRAS” value on HRAS wild-type protein was “A (a compound having 10 or more and less than 20 is denoted as A)”.
As for `CCC[C@H]1C(=O)N[C@@H]([C@@H](C)CC)C(=O)N(C2CC2)CC(=O)N(C)[C@H]2C/C=C\CCN(C2=O)[C@@H](Cc2ccc(C)cc2)C(=O)N(C)CC(=O)N[C@@H](CCc2cc(F)c(C(F)(F)F)c(F)c2)C(=O)N2C[C@H](OCC)C[C@H]2C(=O)NC2(CC(C)(C)C2)C(=O)N(C)[C@@H](C2CCCC2)C(=O)N(C)[C@H](C(=O)N(C)C)CC(=O)N1C` [PP2093], in test [1], half-maximal inhibition (IC50) required 7.4 nM. The “NRAS /KRAS” value in test [2] is “A (a compound having 10 or more and less than 20 is denoted as A)”. In addition, the “HRAS /KRAS” value at HRAS wild-type protein was “A (a compound having 10 or more and less than 20 is denoted as A)”.
The compound `C=CCN1CC(=O)N(C)[C@H]2C/C=C\CCN(C2=O)[C@@H](Cc2ccc(C)cc2)C(=O)N(C)CC(=O)N[C@@H](CCc2cc(F)c(C(F)(F)F)c(F)c2)C(=O)N2C[C@H](OCC)C[C@H]2C(=O)NC2(CC(C)(C)C2)C(=O)N(C)[C@@H](C2CCCC2)C(=O)N(C)[C@H](C(=O)N(C)C)CC(=O)N(C)[C@@H](CCC)C(=O)N[C@@H]([C@@H](C)CC)C1=O` [PP2094] came in with an IC50 in test [1] of 5.4 nM. For the same compound, the “NRAS /KRAS” value in test [2] was “A (a compound having 10 or more and less than 20 is denoted as A)”. In addition, the “HRAS /KRAS” value at HRAS wild-type protein is “A (a compound having 10 or more and less than 20 is denoted as A)”.
Take `C#CCN1CC(=O)N(C)[C@H]2C/C=C\CCN(C2=O)[C@@H](Cc2ccc(C)cc2)C(=O)N(C)CC(=O)N[C@@H](CCc2cc(F)c(C(F)(F)F)c(F)c2)C(=O)N2C[C@H](OCC)C[C@H]2C(=O)NC2(CC(C)(C)C2)C(=O)N(C)[C@@H](C2CCCC2)C(=O)N(C)[C@H](C(=O)N(C)C)CC(=O)N(C)[C@@H](CCC)C(=O)N[C@@H]([C@@H](C)CC)C1=O` [PP2095]: in test [1], the IC50 is 5.7 nM. Further, in test [2], the “NRAS /KRAS” value is “A (a compound having 10 or more and less than 20 is denoted as A)”. Also, at HRAS wild-type protein, the “HRAS /KRAS” value is “A (a compound having 10 or more and less than 20 is denoted as A)”.
As to `CCCN1CC(=O)N(C)[C@H]2C/C=C\CCN(C2=O)[C@@H](Cc2ccc(C)cc2)C(=O)N(C)CC(=O)N[C@@H](CCc2ccc(C(F)(F)F)c(OC)c2)C(=O)N2C[C@H](OCC)C[C@H]2C(=O)NC2(CC(C)(C)C2)C(=O)N(C)[C@@H](C2CCCC2)C(=O)N(C)[C@H](C(=O)N(C)C)CC(=O)N(C)[C@@H](CC)C(=O)N[C@@H]([C@@H](C)CC)C1=O` [PP2096], in test [1], the IC50 was 10.7 nM. Moreover, the “NRAS /KRAS” value in test [2] was “A (a compound having 10 or more and less than 20 is denoted as A)”. Moreover, the “HRAS /KRAS” value on HRAS wild-type protein was “A (a compound having 10 or more and less than 20 is denoted as A)”.
In test [1], `C=CCN1CC(=O)N(C)[C@H]2C/C=C\CCN(C2=O)[C@@H](Cc2ccc(C)cc2)C(=O)N(C)CC(=O)N[C@@H](CCc2ccc(C(F)(F)F)c(OC)c2)C(=O)N2C[C@H](OCC)C[C@H]2C(=O)NC2(CC(C)(C)C2)C(=O)N(C)[C@@H](C2CCCC2)C(=O)N(C)[C@H](C(=O)N(C)C)CC(=O)N(C)[C@@H](CCC)C(=O)N[C@@H]([C@@H](C)CC)C1=O` [PP2098] registered an IC50 of 8.4 nM. In addition, the “NRAS /KRAS” value in test [2] is “A (a compound having 10 or more and less than 20 is denoted as A)”. Besides, the “HRAS /KRAS” value at HRAS wild-type protein was “A (a compound having 10 or more and less than 20 is denoted as A)”.
For `CCC[C@H]1C(=O)N[C@@H]([C@@H](C)CC)C(=O)N(C2CC2)CC(=O)N(C)[C@H]2C/C=C\CCN(C2=O)[C@@H](Cc2ccc(C(F)(F)F)cc2)C(=O)N(C)CC(=O)N[C@@H](CCc2cc(F)c(C(F)(F)F)c(F)c2)C(=O)N2C[C@H](OCC)C[C@H]2C(=O)NC2(CC(C)(C)C2)C(=O)N(C)[C@@H](C2CCCC2)C(=O)N(C)[C@H](C(=O)N(C)C)CC(=O)N1C` [PP2101], the IC50 in test [1] was 16.6 nM. Moreover, the “NRAS /KRAS” value in test [2] was “A (a compound having 10 or more and less than 20 is denoted as A)”. Moreover, the “HRAS /KRAS” value on HRAS wild-type protein is “B (a compound having 3 or more and less than 10 is denoted as B)”.
Compound `C=CCN1CC(=O)N(C)[C@H]2C/C=C\CCN(C2=O)[C@@H](Cc2ccc(C(F)(F)F)cc2)C(=O)N(C)CC(=O)N[C@@H](CCc2cc(F)c(C(F)(F)F)c(F)c2)C(=O)N2C[C@H](OCC)C[C@H]2C(=O)NC2(CC(C)(C)C2)C(=O)N(C)[C@@H](C2CCCC2)C(=O)N(C)[C@H](C(=O)N(C)C)CC(=O)N(C)[C@@H](CCC)C(=O)N[C@@H]([C@@H](C)CC)C1=O` [PP2102] had an IC50 in test [1] of 7 nM. In test [2], the “NRAS /KRAS” value was “A (a compound having 10 or more and less than 20 is denoted as A)”. The “HRAS /KRAS” value at HRAS wild-type protein was “A (a compound having 10 or more and less than 20 is denoted as A)”.
In turn, `C#CCN1CC(=O)N(C)[C@H]2C/C=C\CCN(C2=O)[C@@H](Cc2ccc(C(F)(F)F)cc2)C(=O)N(C)CC(=O)N[C@@H](CCc2cc(F)c(C(F)(F)F)c(F)c2)C(=O)N2C[C@H](OCC)C[C@H]2C(=O)NC2(CC(C)(C)C2)C(=O)N(C)[C@@H](C2CCCC2)C(=O)N(C)[C@H](C(=O)N(C)C)CC(=O)N(C)[C@@H](CCC)C(=O)N[C@@H]([C@@H](C)CC)C1=O` [PP2103] gave an IC50 in test [1] of 4.3 nM. Further, in test [2], the “NRAS /KRAS” value was “A (a compound having 10 or more and less than 20 is denoted as A)”. The “HRAS /KRAS” value on HRAS wild-type protein is “A (a compound having 10 or more and less than 20 is denoted as A)”.
Compound `CCC[C@H]1C(=O)N[C@@H]([C@@H](C)CC)C(=O)N(C2CC2)CC(=O)N(C)[C@H]2C/C=C\CCN(C2=O)[C@@H](Cc2ccc(C(F)(F)F)cc2)C(=O)N(C)CC(=O)N[C@@H](CCc2ccc(C(F)(F)F)c(OC)c2)C(=O)N2C[C@H](OCC)C[C@H]2C(=O)NC2(CC(C)(C)C2)C(=O)N(C)[C@@H](C2CCCC2)C(=O)N(C)[C@H](C(=O)N(C)C)CC(=O)N1C` [PP2105] came in with an IC50 in test [1] of 10.4 nM. In addition, in test [2], the “NRAS /KRAS” value was “A (a compound having 10 or more and less than 20 is denoted as A)”. Besides, at HRAS wild-type protein, the “HRAS /KRAS” value is “A (a compound having 10 or more and less than 20 is denoted as A)”.
